The source of these data is patent publication US20160002204A1 (Board of Regents, The University of Texas System, priority 2014, published 2016).

One may read the EC50 as the concentration that produces a half-maximal response. A higher EC50 goes with lower potency in that assay. In general, IC50 refers to the concentration that gives 50% inhibition.

The subject of one experiment is A549 cells. Nature of the experiment: A549 proliferation (viability) assay, Cell Titer Fluor, 72 hours. In kind it is cell-based. The conditions noted are these: Homo sapiens. A digest of the protocol: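 A549 cells seeded at 1000 cells/well, left 24 h, then exposed to compound for 72 h at 37 °C, 5% CO2, final DMSO 0.5% (v/v). Viability read by Cell Titer Fluor fluorescence; EC50 from four-parameter logistic fit.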

The target in experiment [1] is T1, GLS1 (purified recombinant human GAC) (Homo sapiens, UniProt O94925).
T1 sequence (O94925 55-598 isoform O94925-3 limits assumed): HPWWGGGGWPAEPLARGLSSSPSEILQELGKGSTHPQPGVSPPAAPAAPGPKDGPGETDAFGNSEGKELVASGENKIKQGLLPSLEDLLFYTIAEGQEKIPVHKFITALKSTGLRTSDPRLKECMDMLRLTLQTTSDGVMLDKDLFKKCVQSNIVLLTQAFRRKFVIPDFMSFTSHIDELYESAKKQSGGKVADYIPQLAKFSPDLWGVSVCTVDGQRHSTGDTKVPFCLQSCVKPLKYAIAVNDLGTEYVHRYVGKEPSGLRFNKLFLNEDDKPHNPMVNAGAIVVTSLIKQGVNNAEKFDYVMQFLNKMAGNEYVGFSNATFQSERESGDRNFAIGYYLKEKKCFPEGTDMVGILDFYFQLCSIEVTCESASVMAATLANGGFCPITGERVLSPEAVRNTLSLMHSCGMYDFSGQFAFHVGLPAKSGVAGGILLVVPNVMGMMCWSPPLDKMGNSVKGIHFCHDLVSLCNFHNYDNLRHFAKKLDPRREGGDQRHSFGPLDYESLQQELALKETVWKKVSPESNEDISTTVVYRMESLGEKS
Nature of the experiment: GLS1 enzymatic activity assay (dual-coupled, Amplex UltraRed/resorufin). In kind it is biochemical. A digest of the protocol:
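In this coupled fluorometric format, phosphate-activated GAC (2 nM, 50 mM phosphate) is pre-exposed to compound for 10 min before 1 mM glutamine addition. Product is tracked as resorufin (530/590 nm) over time or at 20 min, and potency is derived by logistic fitting.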

In turn, `COC(=O)C1CCN(CC(=O)Nc2ccn(CCC(F)Cn3cc(C(=O)NCc4cccc(OC(F)(F)F)c4)nn3)c(=O)c2)CC1` (centres unmarked) [Example 273, methyl 1-{[(1-{3-fluoro-4-[4-({[3-(trifluoromethoxy)phenyl]methyl}carbamoyl)-1H-1,2,3-triazol-1-yl]butyl}-2-oxo-1,2-dihydropyridin-4-yl)carbamoyl]methyl}piperidine-4-carboxylate] came in with an EC50 with A549 cells of 500 to 5000 nM. Besides, the IC50 in experiment [1] is less than 100 nM.

`O=C(CN1CCCC(F)(F)C1)Nc1ccn(CCC(F)Cn2cc(C(=O)NCc3cccc(OC(F)(F)F)c3)nn2)c(=O)c1` (centres unmarked) [Example 274, 1-(4-{4-[2-(3,3-difluoropiperidin-1-yl)acetamido]-2-oxo-1,2-dihydropyridin-1-yl}-2-fluorobutyl)-N-{[3-(trifluoromethoxy)phenyl]methyl}-1H-1,2,3-triazole-4-carboxamide] came in with an EC50 in the experiment with A549 cells of less than 100 nM. In experiment [1], the IC50 was less than 100 nM.

On to `O=C(CN1CCCC(F)C1)Nc1ccn(CCC(F)Cn2cc(C(=O)NCc3cccc(OC(F)(F)F)c3)nn2)c(=O)c1` (centres unmarked) [Example 275, 1-(2-fluoro-4-{4-[2-(3-fluoropiperidin-1-yl)acetamido]-2-oxo-1,2-dihydropyridin-1-yl}butyl)-N-{[3-(trifluoromethoxy)phenyl]methyl}-1H-1,2,3-triazole-4-carboxamide], for which, in the experiment with A549 cells, the EC50 is less than 100 nM. The IC50 in experiment [1] is less than 100 nM.

In the case of `CC1(C)CN(CC(=O)Nc2ccn(CCC(F)Cn3cc(C(=O)NCc4cccc(OC(F)(F)F)c4)nn3)c(=O)c2)CCO1` (centres unmarked) [Example 276, 1-(4-{4-[2-(2,2-dimethylmorpholin-4-yl)acetamido]-2-oxo-1,2-dihydropyridin-1-yl}-2-fluorobutyl)-N-{[3-(trifluoromethoxy)phenyl]methyl}-1H-1,2,3-triazole-4-carboxamide], the EC50 in the experiment on A549 cells was in the range of 100 to 500 nM. Moreover, in experiment [1], the IC50 is less than 100 nM.

`CC(C)(C)OC(=O)N1CC(CC(=O)Nc2ccn(CCC(F)Cn3cc(C(=O)NCc4cccc(OC(F)(F)F)c4)nn3)c(=O)c2)C1` (centres unmarked) [Example 277, tert-butyl 3-{[(1-{3-fluoro-4-[4-({[3-(trifluoromethoxy)phenyl]methyl}carbamoyl)-1H-1,2,3-triazol-1-yl]butyl}-2-oxo-1,2-dihydropyridin-4-yl)carbamoyl]methyl}azetidine-1-carboxylate]: the EC50 in the experiment on A549 cells was in the range of 100 to 500 nM. For the same compound, the IC50 in experiment [1] is less than 100 nM.

In the experiment with A549 cells, `CC1CN(CC(=O)Nc2ccn(CCC(F)Cn3cc(C(=O)NCc4cccc(OC(F)(F)F)c4)nn3)c(=O)c2)CCO1` (centres unmarked) [Example 278, 1-(2-fluoro-4-{4-[2-(2-methylmorpholin-4-yl)acetamido]-2-oxo-1,2-dihydropyridin-1-yl}butyl)-N-{[3-(trifluoromethoxy)phenyl]methyl}-1H-1,2,3-triazole-4-carboxamide] returned a 50% effective concentration (EC50) of 100 to 500 nM. Further, in experiment [1], the IC50 was less than 100 nM.

In the experiment on A549 cells, `CS(=O)(=O)N1CCN(CC(=O)Nc2ccn(CCC(F)Cn3cc(C(=O)NCc4cccc(OC(F)(F)F)c4)nn3)c(=O)c2)CC1` (centres unmarked) [Example 279, 1-(2-fluoro-4-{4-[2-(4-methanesulfonylpiperazin-1-yl)acetamido]-2-oxo-1,2-dihydropyridin-1-yl}butyl)-N-{[3-(trifluoromethoxy)phenyl]methyl}-1H-1,2,3-triazole-4-carboxamide] registered an EC50 greater than 5000 nM. Moreover, the IC50 in experiment [1] was less than 100 nM.

On to `O=C(CC1CCNCC1)Nc1ccn(CCC(F)Cn2cc(C(=O)NCc3cccc(OC(F)(F)F)c3)nn2)c(=O)c1` (centres unmarked) [Example 280, 1-(2-fluoro-4-{2-oxo-4-[2-(piperidin-4-yl)acetamido]-1,2-dihydropyridin-1-yl}butyl)-N-{[3-(trifluoromethoxy)phenyl]methyl}-1H-1,2,3-triazole-4-carboxamide], for which the EC50 in the experiment on A549 cells lay in the range of 500 to 5000 nM. For the same compound, the IC50 in experiment [1] lay within 100 to 500 nM.

As for `CCOC(=O)N1CCC(CC(=O)Nc2ccn(CCC(F)Cn3cc(C(=O)NCc4cccc(OC(F)(F)F)c4)nn3)c(=O)c2)CC1` (centres unmarked) [Example 281, ethyl 4-{[(1-{3-fluoro-4-[4-({[3-(trifluoromethoxy)phenyl]methyl}carbamoyl)-1H-1,2,3-triazol-1-yl]butyl}-2-oxo-1,2-dihydropyridin-4-yl)carbamoyl]methyl}piperidine-1-carboxylate], the EC50 in the experiment with A549 cells was less than 100 nM. Also, in experiment [1], the IC50 was less than 100 nM.

Consider `Nc1ccn(CCC(F)Cn2cc(C(=O)NCc3cccc(OC(F)(F)F)c3)nn2)c(=O)c1F` (centres unmarked) [Example 282, 1-[4-(4-amino-3-fluoro-2-oxo-1,2-dihydropyridin-1-yl)-2-fluorobutyl]-N-{[3-(trifluoromethoxy)phenyl]methyl}-1H-1,2,3-triazole-4-carboxamide], for which, in the experiment with A549 cells, the EC50 was greater than 5000 nM. Moreover, the IC50 in experiment [1] was 500 to 5000 nM.

The compound `O=C(CN1CCCC(F)C1)Nc1ccn(CC(F)CCn2cc(C(=O)NCc3cccc(OC(F)(F)F)c3)nn2)c(=O)c1` (centres unmarked) [Example 283, 1-(3-fluoro-4-{4-[2-(3-fluoropiperidin-1-yl)acetamido]-2-oxo-1,2-dihydropyridin-1-yl}butyl)-N-{[3-(trifluoromethoxy)phenyl]methyl}-1H-1,2,3-triazole-4-carboxamide] displayed an EC50 in the experiment on A549 cells of less than 100 nM. For the same compound, the IC50 in experiment [1] is less than 100 nM.

The compound `CO[C@@H](C(=O)Nc1ccn(CCC(F)Cn2cc(C(=O)NCc3cccc(OC(F)(F)F)c3)nn2)c(=O)c1F)c1ccccc1` (stereo partly drawn) [Example 284, 1-(2-fluoro-4-{3-fluoro-4-[(2R)-2-methoxy-2-phenylacetamido]-2-oxo-1,2-dihydropyridin-1-yl}butyl)-N-{[3-(trifluoromethoxy)phenyl]methyl}-1H-1,2,3-triazole-4-carboxamide] had an EC50 with A549 cells of less than 100 nM. Further, in experiment [1], the IC50 is less than 100 nM.

Compound `CO[C@H](C(=O)Nc1ccn(CCC(F)Cn2cc(C(=O)NCc3cccc(OC(F)(F)F)c3)nn2)c(=O)c1F)c1ccccc1` (stereo partly drawn) [Example 285, 1-(2-fluoro-4-{3-fluoro-4-[(2S)-2-methoxy-2-phenylacetamido]-2-oxo-1,2-dihydropyridin-1-yl}butyl)-N-{[3-(trifluoromethoxy)phenyl]methyl}-1H-1,2,3-triazole-4-carboxamide] registered an EC50 in the experiment with A549 cells of less than 100 nM. The IC50 in experiment [1] was less than 100 nM.

In the experiment on A549 cells, `O=C(NCc1cccc(OC(F)(F)F)c1)c1cn(CC(F)CCn2ccc(NC(=O)[C@@H](O)c3ccccc3)c(F)c2=O)nn1` (stereo partly drawn) [Example 286, 1-(2-fluoro-4-{3-fluoro-4-[(2S)-2-hydroxy-2-phenylacetamido]-2-oxo-1,2-dihydropyridin-1-yl}butyl)-N-{[3-(trifluoromethoxy)phenyl]methyl}-1H-1,2,3-triazole-4-carboxamide] gave an EC50 of less than 100 nM. For the same compound, the IC50 in experiment [1] was less than 100 nM.

`O=C(NCc1cccc(OC(F)(F)F)c1)c1cn(CC(F)CCn2ccc(NC(=O)[C@H](O)c3ccccc3)c(F)c2=O)nn1` (stereo partly drawn) [Example 287, 1-(2-fluoro-4-{3-fluoro-4-[(2R)-2-hydroxy-2-phenylacetamido]-2-oxo-1,2-dihydropyridin-1-yl}butyl)-N-{[3-(trifluoromethoxy)phenyl]methyl}-1H-1,2,3-triazole-4-carboxamide] showed an EC50 in the experiment on A549 cells of less than 100 nM. In addition, in experiment [1], the IC50 was less than 100 nM.

In the experiment on A549 cells, `O=C(CN1CCCCC1)Nc1ccn(CCC(F)Cn2cc(C(=O)NCc3cccc(OC(F)(F)F)c3)nn2)c(=O)c1F` (centres unmarked) [Example 288, 1-(2-fluoro-4-{3-fluoro-2-oxo-4-[2-(piperidin-1-yl)acetamido]-1,2-dihydropyridin-1-yl}butyl)-N-{[3-(trifluoromethoxy)phenyl]methyl}-1H-1,2,3-triazole-4-carboxamide] registered an EC50 of less than 100 nM. The IC50 in experiment [1] is less than 100 nM.

Turning to `CC(C)(C)OC(=O)N1CCC(CC(=O)Nc2ccn(CCC(F)Cn3cc(C(=O)NCc4cccc(OC(F)(F)F)c4)nn3)c(=O)c2F)CC1` (centres unmarked) [Example 289, tert-butyl 4-{[(3-fluoro-1-{3-fluoro-4-[4-({[3-(trifluoro-methoxy)phenyl]methyl}carbamoyl)-1H-1,2,3-triazol-1-yl]butyl}-2-oxo-1,2-dihydropyridin-4-yl)carbamoyl]methyl}piperidine-1-carboxylate], in the experiment on A549 cells, the EC50 was less than 100 nM. For the same compound, the IC50 in experiment [1] was less than 100 nM.

In the experiment on A549 cells, `O=C(CN1CCC(F)(F)CC1)Nc1ccn(CCC(F)Cn2cc(C(=O)NCc3cccc(OC(F)(F)F)c3)nn2)c(=O)c1F` (centres unmarked) [Example 290, 1-(4-{4-[2-(4,4-difluoropiperidin-1-yl)acetamido]-3-fluoro-2-oxo-1,2-dihydropyridin-1-yl}-2-fluorobutyl)-N-{[3-(trifluoromethoxy)phenyl]methyl}-1H-1,2,3-triazole-4-carboxamide] registered an EC50 of less than 100 nM. In addition, the IC50 in experiment [1] was less than 100 nM.

`O=C(CN1CCCC(F)C1)Nc1ccn(CCC(F)Cn2cc(C(=O)NCc3cccc(OC(F)(F)F)c3)nn2)c(=O)c1F` (centres unmarked) [Example 291, 1-(2-fluoro-4-{3-fluoro-4-[2-(3-fluoropiperidin-1-yl)acetamido]-2-oxo-1,2-dihydropyridin-1-yl}butyl)-N-{[3-(trifluoromethoxy)phenyl]methyl}-1H-1,2,3-triazole-4-carboxamide] had an EC50 in the experiment on A549 cells of less than 100 nM. Besides, in experiment [1], the IC50 was less than 100 nM.
